Laboratory results as given in the supplement of paper PMC12317010.
Structures can show the parent of a compound that is named as a salt.

Assay: collision cross section in nitrogen (drift tube, single-field); higher = larger gas-phase ion size
[1] = ion source: APCI, ion mode: Positive, ion type: [M]+ (permanent cation)
[2] = ion source: ESI, ion mode: Positive, ion type: [M]+ (permanent cation)
[3] = ion type: [M+Na], ion source: ESI, ion mode: Positive
[4] = ion type: [M-H], ion source: ESI, ion mode: Negative
[5] = ion type: [M+H], ion source: APCI, ion mode: Positive
[6] = ion type: [M+H], ion source: ESI, ion mode: Positive
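Note: chemical standards at 10 µM analysed by drift tube IMS-QTOF MS in about 3.95 torr nitrogen, mean of duplicate injections differing ≤1%, mass error below 10 ppm.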

SMILES | collision cross section in nitrogen [3] [Å²] | collision cross section in nitrogen [4] [Å²] | collision cross section in nitrogen [5] [Å²] | collision cross section in nitrogen [6] [Å²] | further results
CCCCCCCC[N+](C)(CCCCCCCC)CCCCCCCC [Methyltrioctylammonium chloride] |  |  |  |  | collision cross section in nitrogen [1]: 222.2 Å²; collision cross section in nitrogen [2]: 221.8 Å²
CCc1cccc(C)c1N(C(=O)CCl)C(C)COC (configuration not stated) [Metolachlor] | 172.6 |  | 158.9 | 159.8 | 
CSc1nnc(C(C)(C)C)c(=O)[nH]1 [Metribuzin-DA] | 161.3 | 144.8 | 144.2 | 145.2 | 
CSc1nnc(C(C)(C)C)c(=O)n1N [Metribuzin] |  | 148.3 | 146.7 | 148.4 | 
Cc1[nH]c(=O)c(C#N)cc1-c1ccncc1 [Milrinone] |  | 147.4 | 157.1 | 156.3 | 
CCCCC(CC)COC(=O)c1ccccc1C(=O)O (configuration not stated) [Mono(2-ethylhexyl) phthalate] | 182.1 | 169.2 |  |  | 
O=C(O)CCCOC(=O)c1ccccc1C(=O)O [Mono(3-carboxypropyl)phthalate] | 156.3 |  |  |  | 
CCCCOC(=O)c1ccccc1C(=O)O [Monobutyl phthalate] |  | 151.7 |  |  | 
C[C@H]1C(=O)O[C@@H]2CCN3CC=C(COC(=O)[C@](C)(O)[C@]1(C)O)[C@H]23 [Monocrotaline] | 178.6 |  | 175.4 | 175.3 | 
O=C(O)c1ccc(Cl)cc1C(=O)O [Monosodium hydrogen 4-chlorophthalate] |  | 132.5 |  |  | 
CCCCCCCCCCCCCOP(=O)(O)O [Monotridecyl phosphate] |  | 169.9 |  |  | 
CN(C)C(=O)Nc1ccc(Cl)cc1 [Monuron] |  | 142.4 | 142.7 | 143 | 
O=c1c(O)c(-c2ccc(O)cc2O)oc2cc(O)cc(O)c12 [Morin hydrate] |  | 164.1 |  |  | 
CCCCC(C#N)(Cn1cncn1)c1ccc(Cl)cc1 (configuration not stated) [Myclobutanil] |  |  |  | 174.7 | 
CCCCCCCCCCCCCC[N+](C)(C)C [Myristyltrimethylammonium chloride] |  |  |  |  | collision cross section in nitrogen [1]: 185.2 Å²; collision cross section in nitrogen [2]: 185.7 Å²
O=C1C=CC(=O)N1c1cccc(N2C(=O)C=CC2=O)c1 [N,N'-1,3-Phenylenedimaleimide] |  | 155 | 157.9 |  | 
c1ccc2cc(Nc3ccc(Nc4ccc5ccccc5c4)cc3)ccc2c1 [N,N'-Di-2-naphthyl-p-phenylenediamine] |  | 203.8 | 201.9 |  | 
CCCCNC(=S)NCCCC [N,N'-Dibutylthiourea] |  | 148.4 | 148.6 | 148.8 | 
CCCCNC(=O)NCCCC [N,N'-Dibutylurea] | 164.2 |  | 146.3 | 146 | 
S=C(NC1CCCCC1)NC1CCCCC1 [N,N'-Dicyclohexylthiourea] |  | 165.7 | 163 | 162.9 | 
C=CC(=O)NCNC(=O)C=C [N,N'-Methylenebisacrylamide] | 138.1 |  |  |  | 
CCCCN(CCCC)CCCCCCN(CCCC)CCCC [N,N,N',N'-Tetrabutyl-1,6-hexanediamine] |  |  |  | 193.6 | 
CCCCCCCCCCCCCCCCCC[N+](C)(C)C [N,N,N-Trimethyloctadecan-1-aminium chloride] |  |  |  |  | collision cross section in nitrogen [1]: 200.2 Å²; collision cross section in nitrogen [2]: 200.7 Å²
CCCC[N+](C)(CCCC)CCCC [N,N-Dibutyl-N-methylbutan-1-aminium chloride] |  |  |  |  | collision cross section in nitrogen [1]: 153.8 Å²; collision cross section in nitrogen [2]: 154.5 Å²
c1ccc2sc(SN(C3CCCCC3)C3CCCCC3)nc2c1 [N,N-Dicyclohexyl-2-benzothiazolesulfenamide] | 193.7 |  | 186.2 | 185.8 | 
CCN(CC)c1ccccc1 [N,N-Diethylaniline] | 132.8 |  |  |  | 
CCCCCCCCCCCC(=O)N(CC)CC [N,N-Diethyldodecanamide] | 179.4 |  | 179.7 | 179.1 | 
CN(C)c1ccc(N=O)cc1 [N,N-Dimethyl-4-nitrosoaniline] |  |  | 128.7 | 128.4 | 
CN(C)c1ccccc1 [N,N-Dimethylaniline] | 123.8 |  |  |  | 
CCCCCCCCCC[N+](C)(C)[O-] [N,N-Dimethyldecylamine oxide] | 166.7 |  |  | 164.1 | 

More lines, main results first:

collision cross section in nitrogen [3] [Å²] | collision cross section in nitrogen [4] [Å²] | collision cross section in nitrogen [5] [Å²] | collision cross section in nitrogen [6] [Å²] | SMILES | further results
177.4 | 173.9 |  |  | CCc1cccc(C)c1N(C(=O)CS(=O)(=O)O)C(C)COC (configuration not stated) [Metolachlor ESA] | 
 | 165.9 |  |  | CCc1cccc(C)c1N(C(=O)C(=O)O)C(C)COC (configuration not stated) [Metolachlor OA] | 
164 |  | 171.7 | 172.1 | COCCc1ccc(OCC(O)CNC(C)C)cc1 (configuration not stated) [Metoprolol] | 
 |  | 133.8 | 134.3 | Cc1ncc([N+](=O)[O-])n1CCO [Metronidazole] | 
 |  |  | 156.2 | CC(C)(C(=O)c1cccnc1)c1cccnc1 [Metyrapone] | 
164.3 | 159.5 |  |  | COc1ccc(OC)c(C(O)CNC(=O)CN)c1 (configuration not stated) [Midodrine hydrochloride] | 
246.2 | 221.9 |  | 221.9 | CC#C[C@]1(O)CC[C@H]2[C@@H]3CCC4=CC(=O)CCC4=C3[C@@H](c3ccc(N(C)C)cc3)C[C@@]21C [Mifepristone] | 
209.6 | 204.5 | 204.1 | 203.7 | CN(c1nccc(=O)[nH]1)C1CCN(c2nc3ccccc3n2Cc2ccc(F)cc2)CC1 [Mizolastine] | 
157.4 | 160.8 |  |  | O=C(O)c1ccccc1C(=O)OCc1ccccc1 [Monobenzyl phthalate] | 
171.7 | 159.9 |  |  | O=C(O)c1ccccc1C(=O)OC1CCCCC1 [Monocyclohexyl phthalate] | 
 | 142 |  |  | CCOC(=O)c1ccccc1C(=O)O [Monoethyl phthalate] | 
 | 127.6 |  |  | O=C(O)c1ccccc1C(=O)O [Monopotassium phthalate] | 
128.2 |  |  |  | Cc1ccc(N(C)C)cc1 [N,N,4-Trimethylaniline] | 
